Assay results as given in the SangsterLogP compilation.

SMILES	logP
CC=NN(C(=O)c1ccccc1)c1ccccc1	2.88
NN(C(=O)c1ccccc1)c1ccccc1	2.44
CC=NN(C(=O)c1ccc(OC)cc1)c1ccccc1	3.27
COc1ccc(C(=O)N(C)N)cc1	1.23
Cc1ccc(C(=O)N(N)c2ccccc2)cc1	3.1
CN(N)C(=O)c1ccccc1	0.96
NN(C(=O)c1ccc([N+](=O)[O-])cc1)c1ccccc1	2.62
C/C=N/N(C(=O)c1ccc(C)cc1)c1ccccc1	3.39
CN(NC(=S)Nc1ccccc1)C(=O)c1ccc([N+](=O)[O-])cc1	2.69
COc1ccc(C(=O)N(N)c2ccccc2)cc1	2.94
Cc1ccc(C(=O)N(C)N)cc1	1.57
CN(N)C(=O)c1ccc([N+](=O)[O-])cc1	0.99
O=C(c1ccc([N+](=O)[O-])cc1)N(NC(=S)Nc1ccccc1)c1ccccc1	3.91
Cc1ccc(C(=O)N(NC(=S)Nc2ccccc2)c2ccccc2)cc1	4.12
COc1ccc(C(=O)N(C)NC(=S)Nc2ccccc2)cc1	2.8
Cc1ccc(C(=O)N(C)NC(=S)Nc2ccccc2)cc1	2.88
C/C=N/N(C(=O)c1ccc([N+](=O)[O-])cc1)c1ccccc1	3.14
